≈ marks a conversion by molar mass, not a printed value.

A word on the melting point: it is the temperature, or range, at which the solid turns liquid.

The subject of the first data set is MCF-7 (estrogen receptor positive breast cancer). The experiment in a line: In vitro anticancer assay (SRB), MCF-7. Type of data set: cell-based, human. The note with it: Homo sapiens, MCF7, 72 h; concentration that reduces cell growth by 50%, 3 days in culture, SRB; read-out: ED50, MCF-7 (ER+). As for the experimental part:
(§1) All stock cultures were grown in T-25 flasks. Freshly trypsinized cell suspensions were seeded in 96-well microtiter plates at densities of 1500-7500 cells per well with compounds added from DMSO-diluted stock. After 3 days in culture, attached cells were fixed with cold 50% trichloroacetic acid and then stained with 0.4% sulforhodamine B (SRB). The absorbency at 562 nm was measured using a microplate reader after solubilizing the bound dye.
(§2) Biological assay. All stock cultures are grown in T-25 flasks. Freshly trypsinized cell suspensions were seeded in 96-well microtitre plates at densities of 1500-7500 cells per well with compounds added from DMSO-diluted stock. After 3 days in culture, attached cells were fixed with cold 50% trichloroacetic acid and then stained with 0.4% sulforhodamine B (SRB). The absorbency at 562 nm was measured using a microplate reader after solubilizing the bound dye.
In the case of `CCc1cccc2c1ccc1c3c(c(=O)oc12)C(O)CO3` (stereo not drawn) [Compound 3c, 4-Ethyl-17-hydroxy-16,17-dihydro-11,15-dioxa-cyclopenta[a]phenanthren-12-one], the IC50 turned out to be 5 µg/mL (≈ 17.7 µM).
For the molecule `O=c1oc2c3ccccc3ccc2c2occc12` [Compound 4a, 11,15-Dioxa-cyclopenta[a]phenanthren-12-one], the IC50 was greater than 20 µg/mL.
As to `Cc1coc2c1c(=O)oc1c3ccccc3ccc21` [Compound 2a, 17-Methyl-11,15-dioxa-cyclopenta[a]phenanthren-12-one], the IC50 is 4 µg/mL (≈ 16 µM).
Still for that read-out and setting: the same measure for `Cc1cccc2c1ccc1c3c(c(=O)oc12)C(O)CO3` (stereo not drawn) [Compound 3b, 17-Hydroxy-4-methyl-16,17-dihydro-11,15-dioxa-cyclopenta[a]phenanthren-12-one]: 8.3 µg/mL (≈ 30.9 µM); for `C[C@H]1COC2=C1C(=O)C(=O)c1c2ccc2c1CCCC2(C)C` [cryptotanshinone, reference compound]: 0.41 µg/mL (≈ 1.38 µM); for `O=c1oc2c3ccccc3c(Cl)cc2c2occc12` [Compound 4d, 6-Chloro-11,15-dioxa-cyclopenta[a]phenanthren-12-one]: 7 µg/mL (≈ 25.9 µM).
Consider `O=c1oc2c(ccc3ccccc32)c2c1C(O)CO2` (stereo not drawn) [Compound 3a, 17-Hydroxy-16,17-dihydro-11,15-dioxa-cyclopenta[a]phenanthren-12-one], for which the IC50 worked out at 12.5 µg/mL (≈ 49.2 µM).

The data set is the same for the next values; noted with them: Homo sapiens, MCF7; at 20 μg/mL (Table 4); read-out: Percent inhibition at the test concentration (bracketed value), MCF-7.
With `O=c1oc2c3ccccc3ccc2c2occc12` [Compound 4a, 11,15-Dioxa-cyclopenta[a]phenanthren-12-one], the inhibition at 20 µg/mL worked out at 17%.

Staying with this data set, now noted: concentration that reduces cell growth by 50%, 3 days in culture, SRB.
Turning to `Cc1coc2c1C(=O)C(=O)c1c-2ccc2c(C)cccc12` [tanshinone I, reference compound], the “ED50, MCF-7 (ER+)” value amounted to 0.82 µg/mL (≈ 2.97 µM).

The next data set relates to MDA-MB-231 (estrogen receptor negative breast cancer). The experiment in a line: In vitro anticancer assay (SRB), MDA-MB-231. The format is cell-based, human. The note with it: Homo sapiens, MDA-MB-231, 72 h, concentration that reduces cell growth by 50%, 3 days in culture, SRB; read-out: ED50, MDA-MB-231 (ER−). As to the method: as §1, §2
On to `CCc1cccc2c1ccc1c3c(c(=O)oc12)C(O)CO3` (stereo not drawn) [Compound 3c, 4-Ethyl-17-hydroxy-16,17-dihydro-11,15-dioxa-cyclopenta[a]phenanthren-12-one], for which the IC50 is 5 µg/mL (≈ 17.7 µM).
On to `O=c1oc2c3ccccc3ccc2c2occc12` [Compound 4a, 11,15-Dioxa-cyclopenta[a]phenanthren-12-one], for which the IC50 worked out at 10.5 µg/mL (≈ 44.4 µM).
For the molecule `Cc1coc2c1c(=O)oc1c3ccccc3ccc21` [Compound 2a, 17-Methyl-11,15-dioxa-cyclopenta[a]phenanthren-12-one], the IC50 is 10.3 µg/mL (≈ 41.2 µM).
Turning to `C[C@H]1COC2=C1C(=O)C(=O)c1c2ccc2c1CCCC2(C)C` [cryptotanshinone, reference compound], the IC50 turned out to be 0.16 µg/mL (≈ 0.54 µM).
With `O=c1oc2c(ccc3ccccc32)c2c1C(O)CO2` (stereo not drawn) [Compound 3a, 17-Hydroxy-16,17-dihydro-11,15-dioxa-cyclopenta[a]phenanthren-12-one], the IC50 was found to be 3.8 µg/mL (≈ 14.9 µM).

Still in this data set, the particulars now being: concentration that reduces cell growth by 50%, 3 days in culture, SRB.
On to `Cc1coc2c1C(=O)C(=O)c1c-2ccc2c(C)cccc12` [tanshinone I, reference compound], for which the “ED50, MDA-MB-231 (ER−)” value was determined as 0.75 µg/mL (≈ 2.71 µM).

The test system of the next data set is ZR-75-1 (estrogen receptor positive breast cancer). Briefly: In vitro anticancer assay (SRB), ZR-75-1. The note with it: Homo sapiens, ZR-75-1, 72 h, concentration that reduces cell growth by 50%, 3 days in culture, read-out: ED50, ZR-75-1 (ER+). Type of data set: cell-based, human. As for the experimental part:
as §1, §2
For `Cc1coc2c1c(=O)oc1c3ccccc3ccc21` [Compound 2a, 17-Methyl-11,15-dioxa-cyclopenta[a]phenanthren-12-one], the IC50 worked out at 4 µg/mL (≈ 16 µM).
Turning to `Cc1cccc2c1ccc1c3c(c(=O)oc12)C(O)CO3` (stereo not drawn) [Compound 3b, 17-Hydroxy-4-methyl-16,17-dihydro-11,15-dioxa-cyclopenta[a]phenanthren-12-one], the IC50 was greater than 10 µg/mL.
The same measure, in the same setting: the same measure for `O=c1oc2c3ccccc3c(Cl)cc2c2occc12` [Compound 4d, 6-Chloro-11,15-dioxa-cyclopenta[a]phenanthren-12-one]: greater than 10 µg/mL.

The next data set has as its system HS 587-T (estrogen receptor negative breast cancer). Briefly: In vitro anticancer assay (SRB), HS 587-T. The format is cell-based, human. The note with it: concentration that reduces cell growth by 50%, 3 days in culture, printed HS587-1 in Table 4. As to the method: as §1, §2
Take `Cc1coc2c1c(=O)oc1c3ccccc3ccc21` [Compound 2a, 17-Methyl-11,15-dioxa-cyclopenta[a]phenanthren-12-one]: the “ED50, HS 587-T (ER−)” value is 7.5 µg/mL (≈ 30 µM).

The next data set relates to SK-BR-3 (HER-2-overexpressing breast cancer). Briefly: In vitro anticancer assay (SRB), SK-BR-3. The note with it: Homo sapiens, SK-BR-3, 72 h; concentration that reduces cell growth by 50%, 3 days in culture, SRB; read-out: ED50, SK-BR-3 (ER−, HER2+). The format is cell-based, human. As to the method: (§3) In Vitro Anticancer Assay (Nakanishi, Y. et al., J. Med. Chem. 2003, 46, 3185). All stock cultures were grown in T-25 flasks. Freshly trypsinized cell suspensions were seeded in 96-well microtiter plates at densities of 1500-7500 cells per well with compounds added from DMSO-diluted stock. After 3 days in culture, attached cells were fixed with cold 50% trichloroacetic acid and then stained with 0.4% sulforhodamine B (SRB). The absorbency at 562 nm was measured using a microplate reader after solubilizing the bound dye. The mean ED50 is the concentration of agent that reduces cell growth by 50% under the experimental conditions and is the average from at least three independent determinations that were reproducible and statistically significant (FIG. 2). The following human tumor cell lines were used in the assay: A549 (non small cell lung cancer), MCF-7 (estrogen receptor positive breast cancer), ZR-75-1 (estrogen receptor positive breast cancer), MDA-MB-231 (estrogen receptor negative breast cancer), HS 587-T (estrogen receptor negative breast cancer), SK− BR-3 (HER-2-overexpressing breast cancer), A431 (EGFRoverexpressing skin cancer), LN-CaP (AR-dependent prostate cancer), SW620 (colon cancer), PC-3 (prostate cancer), KB (nasopharyngeal carcinoma), KB-VIN (vincristine-resistant KB subline). All cell lines were obtained from the Lineberger Comprehensive Cancer Center (UNC-CH) or from ATCC (Rockville, Md.) and were cultured in RPMI-1640 medium supplemented with 25 mMHEPES, 0.25% sodium bicarbonate, 10% fetal bovine serum, and 100 μg/mL kanamycin.
(§4) Biological assay. All stock cultures are grown in T-25 flasks. Freshly trypsinized cell suspensions were seeded in 96-well microtitre plates at densities of 1500-7500 cells per well with compounds added from DMSO-diluted stock. After 3 days in culture, attached cells were fixed with cold 50% trichloroacetic acid and then stained with 0.4% sulforhodamine B (SRB). The absorbency at 562 nm was measured using a microplate reader after solubilizing the bound dye. The mean ED50 is the concentration of agent that reduces cell growth by 50% under the experimental conditions and is the average from at least three independent determinations that were reproducible and statistically significant. The following human tumor cell lines were used in the assay: A549 (non-small cell lung cancer), MCF-7 (estrogen receptor positive breast cancer), ZR-75-1 (estrogen receptor positive breast cancer), MDA MB-231 (estrogen receptor negative breast cancer), HS 587-T (estrogen receptor negative breast cancer), SK-BR-3 (estrogen receptor negative, HER-2 over-expressing breast cancer), A431 (EGFR over-expressing skin cancer), LN-CaP (AR-dependent prostate cancer), SW620 (colon cancer), PC-3 (prostate cancer), KB (nasopharyngeal carcinoma), KB-VIN (Vincristine resistant KB subline). All cell lines were obtained from the Lineberg Cancer Center (UNC-CH) or from ATCC (Rockville, Md.) and were cultured in RPMI-1640 medium supplemented with 25 mM HEPES, 0.25% sodium bicarbonate, 10% fetal bovine serum, and 100 μg/mL kanamycin.
As to `Cc1cccc2c1ccc1c3c(c(=O)oc12)C(O)CO3` (stereo not drawn) [Compound 3b, 17-Hydroxy-4-methyl-16,17-dihydro-11,15-dioxa-cyclopenta[a]phenanthren-12-one], the IC50 was 8 µg/mL (≈ 29.8 µM).
Still for that read-out and setting: the same measure for `O=c1oc2c3ccccc3c(Cl)cc2c2occc12` [Compound 4d, 6-Chloro-11,15-dioxa-cyclopenta[a]phenanthren-12-one]: greater than 10 µg/mL.

Another data set deals with A431 (EGFR over-expressing skin cancer). Briefly: In vitro anticancer assay (SRB), A431. The format is cell-based, human. The note with it: Homo sapiens, A-431, 72 h; concentration that reduces cell growth by 50%, 3 days in culture, SRB; read-out: ED50, A431. As to the method:
as §3, §4
Turning to `CCc1cccc2c1ccc1c3c(c(=O)oc12)C(O)CO3` (stereo not drawn) [Compound 3c, 4-Ethyl-17-hydroxy-16,17-dihydro-11,15-dioxa-cyclopenta[a]phenanthren-12-one], the IC50 was 3 µg/mL (≈ 10.6 µM).
As for `Cc1cccc2c1ccc1c3c(c(=O)oc12)C(O)CO3` (stereo not drawn) [Compound 3b, 17-Hydroxy-4-methyl-16,17-dihydro-11,15-dioxa-cyclopenta[a]phenanthren-12-one], the IC50 amounted to 3.2 µg/mL (≈ 11.9 µM).
As to `O=c1oc2c3ccccc3c(Cl)cc2c2occc12` [Compound 4d, 6-Chloro-11,15-dioxa-cyclopenta[a]phenanthren-12-one], the IC50 is greater than 10 µg/mL.

The next data set concerns SW620 (colon cancer). The experiment in a line: In vitro anticancer assay (SRB), SW620. The note with it: Homo sapiens, SW-620, 72 h; concentration that reduces cell growth by 50%, 3 days in culture, SRB; read-out: ED50, SW620. The format is cell-based, human. As for the experimental part:
as §3, §4
For the molecule `Cc1cccc2c1ccc1c3c(c(=O)oc12)C(O)CO3` (stereo not drawn) [Compound 3b, 17-Hydroxy-4-methyl-16,17-dihydro-11,15-dioxa-cyclopenta[a]phenanthren-12-one], the IC50 was greater than 10 µg/mL.
As for `O=c1oc2c3ccccc3c(Cl)cc2c2occc12` [Compound 4d, 6-Chloro-11,15-dioxa-cyclopenta[a]phenanthren-12-one], the IC50 was greater than 10 µg/mL.

A further data set deals with KB (nasopharyngeal carcinoma). The experiment in a line: In vitro anticancer assay (SRB), KB. The note with it: Homo sapiens, 72 h; concentration that reduces cell growth by 50%, 3 days in culture, SRB; read-out: ED50, KB. The format is cell-based, human. As for the experimental part: as §3, §4
As to `Cc1cccc2c1ccc1c3c(c(=O)oc12)C(O)CO3` (stereo not drawn) [Compound 3b, 17-Hydroxy-4-methyl-16,17-dihydro-11,15-dioxa-cyclopenta[a]phenanthren-12-one], the IC50 was greater than 10 µg/mL.
Take `O=c1oc2c3ccccc3c(Cl)cc2c2occc12` [Compound 4d, 6-Chloro-11,15-dioxa-cyclopenta[a]phenanthren-12-one]: the IC50 was greater than 10 µg/mL.

Tested on in a further data set: not given
Experiment: not given
Details: not given
As for `CCc1cccc2c1ccc1c3c(c(=O)oc12)C(O)CO3` (stereo not drawn) [Compound 3c, 4-Ethyl-17-hydroxy-16,17-dihydro-11,15-dioxa-cyclopenta[a]phenanthren-12-one], the melting point was 163 to 165 °C.
In the case of `O=c1oc2c3ccccc3ccc2c2occc12` [Compound 4a, 11,15-Dioxa-cyclopenta[a]phenanthren-12-one], the melting point was in the range of 198 to 200 °C.
Turning to `Cc1coc2c1c(=O)oc1c3ccccc3ccc21` [Compound 2a, 17-Methyl-11,15-dioxa-cyclopenta[a]phenanthren-12-one], the melting point was 205 to 207 °C.
The same measure, in the same setting: to `O=c1oc2c3ccccc3c(Cl)cc2c2occc12` [Compound 4d, 6-Chloro-11,15-dioxa-cyclopenta[a]phenanthren-12-one] belongs 150 °C; to `O=c1oc2c(ccc3ccccc32)c2c1C(O)CO2` (stereo not drawn) [Compound 3a, 17-Hydroxy-16,17-dihydro-11,15-dioxa-cyclopenta[a]phenanthren-12-one], 203 to 205 °C.

The record behind these values is patent publication US7795299B2, “Neo-tanshinlactone and analogs as potent and selective anti-breast cancer agents” (The University of North Carolina at Chapel Hill, priority 2004, dated 2010).
